Source: ChEMBL document CHEMBL1275554, “Caspofungin-resistant Candida tropicalis strains causing breakthrough fungemia in patients at high risk for hematologic malignancies” (Antimicrob Agents Chemother, 2008)
Converted amounts (≈) assume the structure as drawn. *1 amine or outer side, *2 acyl side, *3 side chain or, on linkers, in order; H or OH if unused. Where a SMILES comes first, the peptide text is derived from it. Bridges are numbered along the chain shown (N, C = ends). [ ]: non-standard residue; d: D form. The star is where a group is joined. hTyr(3S-OH,4S-OH,3'-OSO3H) = N[C@H](C(=O)O)[C@H](O)[C@@H](O)c1ccc(O)c(OS(=O)(=O)O)c1; pTerphenylCO(4''-OnC5H11) = CCCCCOc1ccc(-c2ccc(-c3ccc(C(=O)*)cc3)cc2)cc1; Orn(4R-OH,5R-OH) = O=C([C@H](C[C@@H](O)[C@@H](O)N[*:3])N[*:1])[*:2]; hTyr(3S-OH,4S-OH) = N[C@H](C(=O)O)[C@H](O)[C@@H](O)c1ccc(O)cc1; Pro(3S-OH,4S-Me) = C[C@H]1CN[C@H](C(=O)O)[C@H]1O; X1 = CCCCCOc1ccc(-c2cc(-c3ccc(C(=O)*)cc3)no2)cc1; Gln(3R-OH) = NC(=O)C[C@@H](O)[C@H](N)C(=O)O; Hyp = O=C(O)[C@@H]1C[C@@H](O)CN1

What was measured:
[1] = tested on: Candida tropicalis; test: Antifungal activity against Candida tropicalis T7 blood stream isolate; assay type: functional
[2] = tested on: Candida tropicalis; test: Antifungal activity against Candida tropicalis T3 blood stream isolate harboring Fks1p FLTLS/PLRDP mutant protein; assay type: functional
[3] = tested on: Candida tropicalis; test: Antifungal activity against Candida tropicalis T19 blood stream isolate harboring Fks1p FLTLS/PLRDP mutant protein; assay type: functional
[4] = tested on: Candida tropicalis; test: Antifungal activity against Candida tropicalis T26 blood stream isolate harboring Fks1p LLTLSLRDP mutant protein; assay type: functional
[5] = tested on: Candida tropicalis; test: Antifungal activity against Candida tropicalis ATCC 750; assay type: functional
[6] = tested on: Candida albicans; test: Antifungal activity against Candida albicans ATCC 90028; assay type: functional
[7] = tested on: Candida albicans; test: Antifungal activity against Candida albicans 205 harboring Fks1p FLTLPLRDP mutant protein; assay type: functional
[8] = Inhibition of Candida tropicalis ATCC 750 glucan synthase subunit FKS1p at monophasic kinetics
[9] = Inhibition of Candida tropicalis T7 blood stream isolate glucan synthase subunit FKS1p at monophasic kinetics
[10] = molecular target: T1, 1,3-beta-D-glucan synthase subunit 1 (Candida tropicalis, UniProt B6S6L8, S80P); test: Inhibition of Candida tropicalis T3 blood stream isolate glucan synthase subunit FKS1p with FLTLS/PLRDP mutant at monophasic kinetics
[11] = molecular target: T1, 1,3-beta-D-glucan synthase subunit 1; test: Inhibition of Candida tropicalis T3 blood stream isolate glucan synthase subunit FKS1p with FLTLS/PLRDP mutant at biphasic kinetics
[12] = molecular target: T1, 1,3-beta-D-glucan synthase subunit 1; test: Inhibition of Candida tropicalis T19 blood stream isolate glucan synthase subunit FKS1p with FLTLS/PLRDP mutant at biphasic kinetics
[13] = molecular target: 1,3-beta-D-glucan synthase subunit 1 (Candida tropicalis, UniProt B6S6L8, F76L); test: Inhibition of Candida tropicalis T26 blood stream isolate glucan synthase subunit FKS1p with LLTLSLRDP mutant at monophasic kinetics
[14] = molecular target: T2, Beta-1,3-glucan synthase (Candida albicans, UniProt O13383); test: Inhibition of Candida albicans ATCC 90028 glucan synthase at monophasic kinetics
T2 sequence (O13383 whole entry): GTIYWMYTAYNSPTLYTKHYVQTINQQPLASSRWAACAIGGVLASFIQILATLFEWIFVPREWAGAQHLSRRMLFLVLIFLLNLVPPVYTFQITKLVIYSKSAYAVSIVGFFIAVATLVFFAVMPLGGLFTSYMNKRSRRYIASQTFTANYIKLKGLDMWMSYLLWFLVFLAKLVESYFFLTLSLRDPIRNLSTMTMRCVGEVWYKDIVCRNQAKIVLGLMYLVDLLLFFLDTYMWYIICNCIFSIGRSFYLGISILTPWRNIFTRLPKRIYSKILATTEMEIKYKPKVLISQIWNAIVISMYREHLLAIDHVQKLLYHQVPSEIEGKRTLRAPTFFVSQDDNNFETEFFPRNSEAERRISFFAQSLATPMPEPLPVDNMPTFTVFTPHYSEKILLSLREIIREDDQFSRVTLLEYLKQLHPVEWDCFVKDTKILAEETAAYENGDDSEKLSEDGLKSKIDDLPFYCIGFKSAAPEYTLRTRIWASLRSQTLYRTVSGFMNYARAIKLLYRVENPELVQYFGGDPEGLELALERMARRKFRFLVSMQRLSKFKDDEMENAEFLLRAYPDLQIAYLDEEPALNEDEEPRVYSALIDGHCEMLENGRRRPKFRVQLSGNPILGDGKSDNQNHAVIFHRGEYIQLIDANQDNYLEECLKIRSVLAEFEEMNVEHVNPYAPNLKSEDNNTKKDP

[15] = Inhibition of Candida albicans 205 glucan synthase subunit FKS1p FLTLPLRDP mutant at monophasic kinetics
[16] = molecular target: T1, 1,3-beta-D-glucan synthase subunit 1; test: Inhibition of Candida tropicalis T19 blood stream isolate glucan synthase subunit FKS1p with FLTLS/PLRDP mutant at monophasic kinetics

Chain of 1,3-beta-D-glucan synthase subunit 1 (Candida tropicalis, UniProt B6S6L8, F76L) (B6S6L8 entry or part of it F76L): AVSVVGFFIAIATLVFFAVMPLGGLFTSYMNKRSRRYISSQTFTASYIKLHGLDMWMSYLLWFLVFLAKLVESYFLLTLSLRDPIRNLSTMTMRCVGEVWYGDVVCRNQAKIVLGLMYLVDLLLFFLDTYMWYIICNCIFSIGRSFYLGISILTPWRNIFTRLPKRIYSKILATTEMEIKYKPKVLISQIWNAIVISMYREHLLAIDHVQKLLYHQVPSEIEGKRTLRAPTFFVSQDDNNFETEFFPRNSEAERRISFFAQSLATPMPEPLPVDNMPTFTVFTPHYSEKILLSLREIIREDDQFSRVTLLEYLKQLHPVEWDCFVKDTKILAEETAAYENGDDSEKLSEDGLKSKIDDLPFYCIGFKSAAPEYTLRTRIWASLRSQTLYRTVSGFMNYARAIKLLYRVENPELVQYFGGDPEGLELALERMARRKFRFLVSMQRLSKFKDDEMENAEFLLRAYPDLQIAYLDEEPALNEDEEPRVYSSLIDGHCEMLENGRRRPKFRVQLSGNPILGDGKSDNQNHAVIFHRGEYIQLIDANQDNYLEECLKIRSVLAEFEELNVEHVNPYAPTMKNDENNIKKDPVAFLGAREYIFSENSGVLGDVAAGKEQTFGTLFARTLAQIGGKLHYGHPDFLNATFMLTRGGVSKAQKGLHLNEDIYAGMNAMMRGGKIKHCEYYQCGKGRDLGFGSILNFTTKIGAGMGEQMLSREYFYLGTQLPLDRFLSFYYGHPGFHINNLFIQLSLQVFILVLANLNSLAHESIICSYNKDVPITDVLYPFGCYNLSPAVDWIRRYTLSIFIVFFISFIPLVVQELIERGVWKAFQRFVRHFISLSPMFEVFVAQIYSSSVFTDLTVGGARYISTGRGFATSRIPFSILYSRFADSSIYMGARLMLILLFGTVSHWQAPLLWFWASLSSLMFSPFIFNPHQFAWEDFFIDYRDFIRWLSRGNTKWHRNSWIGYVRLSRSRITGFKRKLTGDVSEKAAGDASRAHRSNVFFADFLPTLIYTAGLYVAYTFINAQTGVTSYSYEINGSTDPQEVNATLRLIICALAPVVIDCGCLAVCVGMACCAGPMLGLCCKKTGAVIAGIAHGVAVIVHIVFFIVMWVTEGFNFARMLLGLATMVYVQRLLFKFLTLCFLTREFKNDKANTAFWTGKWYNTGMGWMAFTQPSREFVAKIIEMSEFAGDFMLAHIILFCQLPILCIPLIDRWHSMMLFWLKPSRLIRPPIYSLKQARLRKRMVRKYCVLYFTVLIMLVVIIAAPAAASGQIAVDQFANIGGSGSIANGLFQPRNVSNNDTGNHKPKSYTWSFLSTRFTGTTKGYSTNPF
T1 sequence (B6S6L8 entry or part of it S80P): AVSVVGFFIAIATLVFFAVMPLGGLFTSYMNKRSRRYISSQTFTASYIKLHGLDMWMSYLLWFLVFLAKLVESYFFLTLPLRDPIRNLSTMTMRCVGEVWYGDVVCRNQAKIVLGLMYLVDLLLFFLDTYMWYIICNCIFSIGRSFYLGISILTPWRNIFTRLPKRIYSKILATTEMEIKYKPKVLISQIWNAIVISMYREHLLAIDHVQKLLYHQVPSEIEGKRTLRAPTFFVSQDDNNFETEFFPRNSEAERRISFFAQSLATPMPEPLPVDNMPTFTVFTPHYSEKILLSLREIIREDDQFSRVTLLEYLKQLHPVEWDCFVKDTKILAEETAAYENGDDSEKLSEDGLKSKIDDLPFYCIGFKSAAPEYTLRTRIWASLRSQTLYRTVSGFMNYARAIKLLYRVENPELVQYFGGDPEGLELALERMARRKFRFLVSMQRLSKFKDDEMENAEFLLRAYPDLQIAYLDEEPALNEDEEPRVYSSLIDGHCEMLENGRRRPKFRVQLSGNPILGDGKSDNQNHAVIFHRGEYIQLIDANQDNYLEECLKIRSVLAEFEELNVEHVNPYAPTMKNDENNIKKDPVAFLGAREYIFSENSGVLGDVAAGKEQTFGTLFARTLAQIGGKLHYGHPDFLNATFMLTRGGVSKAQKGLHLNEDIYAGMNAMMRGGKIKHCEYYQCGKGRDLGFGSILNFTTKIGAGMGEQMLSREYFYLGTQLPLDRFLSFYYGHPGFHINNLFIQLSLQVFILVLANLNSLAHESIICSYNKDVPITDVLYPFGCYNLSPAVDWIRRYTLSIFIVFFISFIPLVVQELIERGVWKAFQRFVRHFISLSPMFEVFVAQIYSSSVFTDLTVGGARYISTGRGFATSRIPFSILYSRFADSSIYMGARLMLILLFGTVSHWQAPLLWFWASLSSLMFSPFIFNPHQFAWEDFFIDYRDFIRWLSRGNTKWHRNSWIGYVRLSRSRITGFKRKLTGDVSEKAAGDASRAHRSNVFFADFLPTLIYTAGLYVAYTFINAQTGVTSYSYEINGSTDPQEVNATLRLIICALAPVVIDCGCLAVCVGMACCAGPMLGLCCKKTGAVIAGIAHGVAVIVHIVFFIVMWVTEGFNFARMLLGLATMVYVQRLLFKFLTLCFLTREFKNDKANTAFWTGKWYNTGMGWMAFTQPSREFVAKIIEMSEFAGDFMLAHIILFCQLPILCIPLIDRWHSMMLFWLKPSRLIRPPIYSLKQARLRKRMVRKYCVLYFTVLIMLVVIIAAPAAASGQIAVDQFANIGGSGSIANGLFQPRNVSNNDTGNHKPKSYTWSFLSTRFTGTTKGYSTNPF

| SMILES | MIC [1] | MIC [2] | MIC [3] | MIC [4] | MIC [5] | MIC [6] | MIC [7] | IC50 [8] | IC50 [9] | IC50 [10] | IC50 [11] | IC50 [12] | IC50 [13] | IC50 [14] | IC50 [15] | IC50 [16] |
| --- | --- | --- | --- | --- | --- | --- | --- | --- | --- | --- | --- | --- | --- | --- | --- | --- |
| C[C@@H](c1ncncc1F)[C@](O)(Cn1cncn1)c1ccc(F)cc1F [VORICONAZOLE] | 0.06 mg/L (≈ 0.172 µM) | 1 mg/L (≈ 2.86 µM) | 2 mg/L (≈ 5.73 µM) | 0.03 mg/L (≈ 0.0859 µM) |  |  |  |  |  |  |  |  |  |  |  |  |
| CC[C@@H]([C@H](C)O)n1ncn(-c2ccc(N3CCN(c4ccc(OC[C@@H]5CO[C@@](Cn6cncn6)(c6ccc(F)cc6F)C5)cc4)CC3)cc2)c1=O [POSACONAZOLE] | 0.25 mg/L (≈ 0.357 µM) | 0.25 mg/L (≈ 0.357 µM) | 1 mg/L (≈ 1.43 µM) | 0.06 mg/L (≈ 0.0856 µM) |  |  |  |  |  |  |  |  |  |  |  |  |
| CCCCCOc1ccc(-c2cc(-c3ccc(C(=O)N[C@H]4C[C@@H](O)[C@@H](O)NC(=O)[C@@H]5[C@@H](O)[C@@H](C)CN5C(=O)[C@H]([C@H](O)CC(N)=O)NC(=O)[C@H]([C@H](O)[C@@H](O)c5ccc(O)c(OS(=O)(=O)O)c5)NC(=O)[C@@H]5C[C@@H](O)CN5C(=O)[C@H]([C@@H](C)O)NC4=O)cc3)no2)cc1 [MICAFUNGIN] (X1-[Orn(4R-OH,5R-OH)]T[Hyp][hTyr(3S-OH,4S-OH,3'-OSO3H)][Gln(3R-OH)][Pro(3S-OH,4S-Me)]; lactam 1-C) | 0.06 mg/L (≈ 0.0472 µM) | 2 mg/L (≈ 1.57 µM) | 2 mg/L (≈ 1.57 µM) | 0.5 mg/L (≈ 0.394 µM) | 0.06 mg/L (≈ 0.0472 µM) | 0.03 mg/L (≈ 0.0236 µM) | 4 mg/L (≈ 3.15 µM) | 0.007545 mg/L (≈ 0.00594 µM) | 0.006168 mg/L (≈ 0.00486 µM) | 0.000117 µM | 0.228 µM | 0.223 µM | 0.0596 µM | 0.0148 µM | 1.085 mg/L (≈ 0.854 µM) |  |
| OC(Cn1cncn1)(Cn1cncn1)c1ccc(F)cc1F [FLUCONAZOLE] | 0.25 mg/L (≈ 0.816 µM) | 8 mg/L (≈ 26.1 µM) | 32 mg/L (≈ 104 µM) | 0.5 mg/L (≈ 1.63 µM) |  |  |  |  |  |  |  |  |  |  |  |  |
| CCCCCOc1ccc(-c2ccc(-c3ccc(C(=O)N[C@H]4C[C@@H](O)[C@@H](O)NC(=O)[C@@H]5[C@@H](O)[C@@H](C)CN5C(=O)[C@H]([C@@H](C)O)NC(=O)[C@H]([C@H](O)[C@@H](O)c5ccc(O)cc5)NC(=O)[C@@H]5C[C@@H](O)CN5C(=O)[C@H]([C@@H](C)O)NC4=O)cc3)cc2)cc1 [ANIDULAFUNGIN] ({pTerphenylCO(4''-OnC5H11)}-[Orn(4R-OH,5R-OH)]T[Hyp][hTyr(3S-OH,4S-OH)]T[Pro(3S-OH,4S-Me)]; lactam 1-C) | 0.12 mg/L (≈ 0.105 µM) | 2 mg/L (≈ 1.75 µM) | 1 mg/L (≈ 0.877 µM) | 0.5 mg/L (≈ 0.438 µM) | 0.06 mg/L (≈ 0.0526 µM) | 0.03 mg/L (≈ 0.0263 µM) | 2 mg/L (≈ 1.75 µM) | 0.004661 mg/L (≈ 0.00409 µM) | 0.002689 mg/L (≈ 0.00236 µM) | 0.000281 µM | 0.205 µM | 0.357 µM | 0.0277 µM | 0.0016 µM | 0.989 mg/L (≈ 0.867 µM) | 0.000503 µM |
| CCC(C)n1ncn(-c2ccc(N3CCN(c4ccc(OCC5COC(Cn6cncn6)(c6ccc(Cl)cc6Cl)O5)cc4)CC3)cc2)c1=O (stereo not drawn) [ITRACONAZOLE] | 0.25 mg/L (≈ 0.354 µM) | 0.5 mg/L (≈ 0.709 µM) | 1 mg/L (≈ 1.42 µM) | 0.125 mg/L (≈ 0.177 µM) |  |  |  |  |  |  |  |  |  |  |  |  |
| CC[C@H](C)C[C@H](C)CCCCCCCCC(=O)N[C@H]1C[C@@H](O)[C@@H](NCCN)NC(=O)[C@@H]2[C@@H](O)CCN2C(=O)[C@H]([C@H](O)CCN)NC(=O)[C@H]([C@H](O)[C@@H](O)c2ccc(O)cc2)NC(=O)[C@@H]2C[C@@H](O)CN2C(=O)[C@H]([C@@H](C)O)NC1=O [CASPOFUNGIN] | 0.5 mg/L (≈ 0.457 µM) | 4 mg/L (≈ 3.66 µM) | 4 mg/L (≈ 3.66 µM) | 1 mg/L (≈ 0.915 µM) | 0.25 mg/L (≈ 0.229 µM) | 0.12 mg/L (≈ 0.11 µM) | 8 mg/L (≈ 7.32 µM) | 0.002331 mg/L (≈ 0.00213 µM) | 0.007652 mg/L (≈ 0.007 µM) | 0.00028 µM | 0.338 µM | 0.241 µM | 0.0703 µM | 0.000457 µM | 0.2454 mg/L (≈ 0.224 µM) | 0.000271 µM |
